Test results published in PMC10569036.

What was measured:
[1] = shake flask on a mixture of 185; loss from the water phase only; LC-Orbitrap peak areas; details: room
[2] = shake flask on a mixture of 185; loss from the water phase only; LC-QTOF peak areas; details: room

Row | Structure (SMILES) | log partition 1-octanol / HPLC water, unbuffered, traces of methanol / DMSO [1] | log partition butyl acetate / HPLC water, unbuffered, traces of methanol / DMSO [1] | log partition chloroform / HPLC water, unbuffered, traces of methanol / DMSO [1] | log partition cyclohexane / HPLC water, unbuffered, traces of methanol / DMSO [1] | log partition dichloromethane / HPLC water, unbuffered, traces of methanol / DMSO [1] | log partition n-hexane / HPLC water, unbuffered, traces of methanol / DMSO [1] | log partition n-octane / HPLC water, unbuffered, traces of methanol / DMSO [1] | log partition n-undecane / HPLC water, unbuffered, traces of methanol / DMSO [1] | log partition oleylalcohol / HPLC water, unbuffered, traces of methanol / DMSO [1] | log partition toluene / HPLC water, unbuffered, traces of methanol / DMSO [1] | log partition 1-octanol / HPLC water, unbuffered, traces of methanol / DMSO [2] | log partition butyl acetate / HPLC water, unbuffered, traces of methanol / DMSO [2] | log partition chloroform / HPLC water, unbuffered, traces of methanol / DMSO [2] | log partition cyclohexane / HPLC water, unbuffered, traces of methanol / DMSO [2] | log partition dichloromethane / HPLC water, unbuffered, traces of methanol / DMSO [2] | log partition n-hexane / HPLC water, unbuffered, traces of methanol / DMSO [2] | log partition n-octane / HPLC water, unbuffered, traces of methanol / DMSO [2] | log partition n-undecane / HPLC water, unbuffered, traces of methanol / DMSO [2] | log partition oleylalcohol / HPLC water, unbuffered, traces of methanol / DMSO [2] | log partition toluene / HPLC water, unbuffered, traces of methanol / DMSO [2]
1 | CCc1nn(C)c(C(=O)NCc2ccc(C(C)(C)C)cc2)c1Cl | 1.459 log10 | 1.634 log10 | 0.2173 log10 | 0.942 log10 | 3.08 log10 | 0.5625 log10 | 1.395 log10 | 0.9075 log10 | 1.51 log10 | 1.132 log10 | 0.9057 log10 | 1.589 log10 | 1.982 log10 | 2.337 log10 | 2.036 log10 | 2.449 log10 | 2.089 log10 | 1.893 log10 | 0.96 log10 | 1.518 log10
2 | CCOc1ccc2[nH]cc(C(=O)NCc3ccccc3)c(=O)c2n1 | 3.526 log10 | 2.502 log10 | 1.196 log10 | -1.221 log10 | 1.153 log10 | -1.633 log10 | -1.139 log10 | -1.372 log10 | 2.478 log10 | -0.2525 log10 | 2.233 log10 | 1.386 log10 | 2.411 log10 | -1.713 log10 | 1.249 log10 | -1.238 log10 | -1.123 log10 | -1.345 log10 | 2.032 log10 | -0.4984 log10
3 | O=C(Nc1ccccc1-c1ccc(Cl)cc1)c1cccnc1Cl | 3.752 log10 | 4.674 log10 | 1.201 log10 | 2.491 log10 | 2.846 log10 | 1.664 log10 | 1.841 log10 | 2.234 log10 | 3.336 log10 | 3.533 log10 | 2.544 log10 | 2.85 log10 | 2.789 log10 | 1.857 log10 | 2.321 log10 | 1.024 log10 | 1.335 log10 | 1.129 log10 | 1.78 log10 | 2.524 log10
4 | CN(C1CCCCC1)S(=O)(=O)c1ccccc1N | 1.192 log10 | 0.997 log10 | 0.5005 log10 | 0.7696 log10 | 1.312 log10 | 0.8609 log10 | 0.7922 log10 | 0.7687 log10 | 1.252 log10 | 0.9027 log10 | -0.8134 log10 | 0.2235 log10 | 0.4748 log10 | -0.5397 log10 | 0.1793 log10 | -0.5682 log10 | -0.5115 log10 | -0.8537 log10 | -0.9123 log10 | -0.3194 log10
5 | Cc1oncc1C(=O)Nc1ccc(C(F)(F)F)cc1 | 1.455 log10 | 1.635 log10 | 1.002 log10 | 0.009613 log10 | 1.347 log10 | -0.1226 log10 | -0.1369 log10 | -0.387 log10 | 1.068 log10 | 0.7892 log10 | 2.576 log10 | 3.034 log10 | 2.805 log10 | 0.2033 log10 | 2.511 log10 | 0.07872 log10 | 0.112 log10 | 0.08618 log10 | 2.816 log10 | 2.381 log10
